Key:
[1] = tested on: Pseudomonas aeruginosa ATCC® 27853™; type: cell-based; conditions: 3.12-25 μM; 180 minutes
How it was run: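 P. aeruginosa ATCC 27853 at 1×10^6 CFU/ml incubated 180 min with peptides (25–3.12 μM, pH 5.5 or 7.2; or 150–37.5 μg/ml, pH 5.5) versus tryptone saline; gentamicin 4 μg/ml control. Surviving CFU counted after overnight plating, expressed as log reduction in CFU/ml.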

[2] = tested on: Acinetobacter baumannii ATCC® BAA-747™; type: cell-based; conditions: 3.12-25 μM; 60 minutes
How it was run: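 Peptides at 25, 12.5, 6.25 and 3.12 μM were incubated with 1×10^6 CFU/ml bacteria at pH 5.5 or 7.2, with tryptone saline as negative control and gentamicin (4 μg/ml) as positive control. Incubation was 60 min for A. baumannii and 180 min for P. aeruginosa. Surviving CFU counted after overnight plating, expressed as log reduction in CFU/ml.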

[3] = tested on: mouse cornea (corneal epithelial abrasion); assay: In vivo model of corneal wound healing; conditions: treated at 0 and 16 hours; 95-122 10^−5 M; 120-146WH 10^−8 M or 10^−6 M; HB-EGF 250 ng/ml
swine skin wounds = assay: Swine full thickness excisional dermal wound model, wound area; type: in vivo
Description: In this Example, peptide compounds of the presently disclosed and claimed inventive concept(s) were evaluated as to their activity on the dermal wound healing process in a clinically relevant swine full thickness excisional wound model. Three different peptide formulations (Group B, Peptide 95-122 (SEQ ID NO: 26); Group C, Peptide 120-146WH (SEQ ID NO: 31); and Group D, Peptide 120-146QH-5RMP (SEQ ID NO: 33)) were each evaluated at the same concentration (3 mg/ml). Sterile saline served as the control (Group A).
Full thickness excisional wounds were induced on the dorsum of swine (N=3) using a 1.0 cm biopsy punch. Treatments were administered (0.20 ml) to each wound (N=6 wounds per group), and the wounds were dressed with standard occlusive dressing ([…]™, 3M Corporation, St. Paul, Minn.). Treatments were reapplied daily and dressings changed. Clinical wound healing observations and wound area (2 mm) measurements were performed on days 0, 3, 5, 7, 10, and 14 post-wounding. Wound area (2 mm) data were expressed as percentage (%) of wound healing. Animals were terminated on day 14 with wounds harvested and processed for histological evaluation. […] All peptide formulation treatment groups healed faster with greater rate of closure and re-epithelialization over time, as compared to the saline control (Group A).

[4] = 3 mg/ml, 0.20 ml per wound, reapplied daily

LDREANLTSSVTILPLPLQNATVEAGTR (listed as Homo sapiens) [Peptide 95-122]
activity against Pseudomonas aeruginosa at either pH (5.5, 7.2) [1]: not active
activity against Acinetobacter at either pH (5.5, 7.2) [2]: not active
corneal wound healing versus vehicle [3]: promotes corneal wound healing
Mean Wound Healing (%) Day 0 (swine skin wounds; [4]): 0.0%
Mean Wound Healing (%) Day 3 (swine skin wounds; [4]): 28.9%
Mean Wound Healing (%) Day 5 (swine skin wounds; [4]): 41.5%
Mean Wound Healing (%) Day 7 (swine skin wounds; [4]): 70.8%
Mean Wound Healing (%) Day 10 (swine skin wounds; [4]): 99.7%
Mean Wound Healing (%) Day 14 (swine skin wounds; [4]): 100.0%
dermal wound healing (swine skin wounds; topical 3 mg/ml over 14 days, vs saline): accelerate dermal wound healing
